# From US10710996B2, “Pyrido-azaheterecydic compound and preparation method and use thereof” (SHANGHAI INSTITUTE OF MATERIA MEDICA, CHINESE ACADEMY OF …, priority 2015, dated 2020)
# “And” between values parts separate entries of the source, which are not always exact repeats. Equal entries are not always repeated. Where two headings read alike, the source gives them in different places.
# Key:
# [1] = system: human lung cancer EBC-1 xenograft tumor; assay: Growth inhibition of subcutaneous xenograft tumor of human lung cancer EBC-1 in nude mice; assay type: in vivo; settings: for RTV (mean ± SD) / T/C (%) / TV (mm^3, mean ± SD) d21 / Weight (g) d21: d21
# Description: EBC-1 cells were subcutaneously inoculated into the armpit on the right side of the nude mice in an amount of 5×10^6/mouse respectively to form xenograft tumor, which were then passaged in nude mice for three generations. Tumor tissue that was growing vigorously was cut into about 1.5 mm^3 under sterile conditions, and subcutaneously inoculated into the armpit on the right side of the nude mice, and the diameter of the xenograft tumor was measured with a vernier caliper. The diameter of the subcutaneous xenograft tumor in nude mice was measured with a vernier caliper. […] The diameter of xenograft tumor was measured twice a week and the body weight of mice was weighed during the whole experiment. The tumor volume (TV) was calculated by the following equation: TV=½×a×b^2, wherein a and b represent the length and width, respectively. The relative tumor volume (RTV) was calculated based on the measured results, and the calculation equation thereof is: RTV=Vt/V0, wherein V0 is the tumor volume measured when the mice were divided in different cages and administered (i.e., d0) and Vt is the tumor volume measured each time.
# [2] = target: ALK (Homo sapiens, UniProt Q9UM73); assay: Tyrosine kinase inhibition rate (ELISA), ALK; assay type: biochemical; settings: read-out: Inhibtion rate (%) ALK
# [3] = target: IGF1R (Homo sapiens, UniProt P08069); assay: Tyrosine kinase inhibition rate (ELISA), IGF1R; assay type: biochemical; settings: read-out: Inhibtion rate (%) IGF1R
# [4] = target: ABL (Homo sapiens, UniProt P00519); assay: Tyrosine kinase inhibition rate (ELISA), ABL; assay type: biochemical; settings: read-out: Inhibtion rate (%) ABL
# [5] = target: EGFR (Homo sapiens, UniProt P00533); assay: Tyrosine kinase inhibition rate (ELISA), EGFR; assay type: biochemical; settings: read-out: Inhibtion rate (%) EGFR
# [6] = target: T1, c-Met kinase (Homo sapiens, UniProt P08581); assay: Inhibitory effect on c-Met kinase activity at molecular level (ELISA); assay type: biochemical;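 further: recombinant c-Met kinase domain with 5 µM ATP, 1 h at 37 °C, substrate phosphorylation detected by anti-phosphotyrosine PY99 ELISA at 490 nm versus DMSO negative control, ATP-free wells as blank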
# T1 construct: c-Met kinase domain recombinant protein diluted with 49 μL of the reaction buffer was added
# Description: Experiment for Preliminarily Evaluating the Inhibitory Effect on the Activity of Receptor Tyrosine Kinase c-Met at Molecular Level
# After discarding the liquid in the wells, the plate was washed with T-PBS (0.1% Tween-20 in PBS) in an amount of 200 μL/well three times, each for 5 minutes. The ELISA plate was dried in an oven at 37° C. for 1-2 hours. 50 μl of adenosine triphosphate (ATP) solution diluted with reaction buffer (50 mM 4-hydroxyethylpiperazine ethanesulfonic acid (HEPES) pH 7.4, 50 mM MgCl2, 0.5 mM MnCl2, 0.2 mM Na3VO4, 1 mM dithiothreitol (DTT)) to a final concentration of 5 μM was added to each well. The compounds were diluted to an appropriate concentration with DMSO (1 μL/well) or a solution containing DMSO in a corresponding concentration (negative control well), and then c-Met kinase domain recombinant protein diluted with 49 μL of the reaction buffer was added therein to initiate the reaction, with two ATP-free control wells for each test. The plate was placed in a shaker (100 rpm) at 37° C. for reacting 1 hour, and washed with T-PBS three times. Primary antibody PY99 diluent was added in an amount of 100 μL/well to allow the reaction in a shaker at 37° C. for 0.5 hour, and then the plate was washed with T-PBS three times. Then the secondary antibody horseradish peroxidase labeled goat anti-mouse IgG diluent was added in an amount of 100 μL/well, and the plate was placed in a shaker at 37° C. for reacting 0.5 hour, and then washed with T-PBS three times. 2 mg/ml of o-phenylenediamine (OPD) coloring solution (diluted with 0.1 M citric acid-sodium citrate buffer (pH=5.4) containing 0.03% H2O2) was then added at 100 μL/well and reacted at 25° C. for 1-10 min with light blocked (ultrasound was required to dissolve OPD, the coloring solution was prepared when needed). The reaction was stopped by adding 2 M of H2SO4 in an amount of 50 μL/well, and a wavelength-adjustable microplate reader SPECTRA MAX 190 was read at 490 nm.
# The inhibition rate of the sample was calculated by the following equation:
# [7] = Pharmacokinetic test in rats; assay type: in vivo, Sprague-Dawley rats; settings: rat; for bioavailability: oral, gavage 10 mg/kg vs intravenous 5 mg/kg, read-out: F (absolute bioavailability); for AUC(0-inf) / AUC(0-t) / Cmax / Tmax / half-life / clearance / Vd / MRT: mean; for Vd: read-out: Vss
# Description: 14 male Sprague-Dawley rats, weigh 200-220 g, were randomly divided into 4 groups with 4/3 in each group. The rats were intragastrically and intravenously administered with compound 7S and 8S respectively. The compounds were dissolved in normal saline containing 5% of DMSO and solubilized with 5% of tween-80 (Tween 80), and the final concentration of the sample was 1 mg/ml.
# The rats were fasted 12 h before the test, free drinking water. They were fed 2 h after administration.
# gavage administration: 0.25 h, 0.5 h, 1.0 h, 2.0 h, 3.0 h, 4.0 h, 6.0 h, 8.0 h and 24 h after administration;
# intravenous administration: 5 min, 0.25 h, 0.5 h, 1.0 h, 2.0 h, 4.0 h, 6.0 h, 8.0 h and 24 h after administration;
# 0.3 ml venous blood was collected from the retrobulbar venous plexus of rats at the above time point, and placed in a heparinized tube and centrifuged at 11000 rpm for 5 min. The plasma was separated and frozen in a refrigerator at −20° C.
# The concentrations of the compounds in rat plasma were measured by LC/MS/MS.
# Pharmacokinetic parameters after administration were calculated using the non-compartmental model of the Phoenix 1.3 software (Pharsight, U.S.A.).
# Peak concentration Cmax and peak time Tmax were the measured values;
# The area under the curve of the drug concentration vs. time AUC0-t value: calculated according to trapezoidal rule; AUC0-∞=AUC0-t+Ct/ke, Ct is the plasma concentration at the last measurable time point, ke is the elimination rate constant;
# Elimination half-life t1/2=0.693/ke;
# Average retention time MRT=AUMC/AUC.
# Clearance rate CL=D/AUC0-∞;
# Volume of distribution at steady state Vss=CL×MRT
# [8] = target: PDGFR-β (Homo sapiens, UniProt P09619); assay: Tyrosine kinase inhibition rate (ELISA), PDGFR-β; assay type: biochemical; settings: read-out: Inhibtion rate (%) PDGFR-β
# [9] = target: c-Src (Homo sapiens, UniProt P12931); assay: Tyrosine kinase inhibition rate (ELISA), c-Src; assay type: biochemical; settings: read-out: Inhibtion rate (%) c-Src
# [10] = target: EPH-A2 (Homo sapiens, UniProt P29317); assay: Tyrosine kinase inhibition rate (ELISA), EPH-A2; assay type: biochemical; settings: read-out: Inhibtion rate (%) EPH-A2
# [11] = target: PDGFR-α (Homo sapiens, UniProt P16234); assay: Tyrosine kinase inhibition rate (ELISA), PDGFR-α; assay type: biochemical; settings: read-out: Inhibtion rate (%) PDGFR-α
# [12] = target: RET (Homo sapiens, UniProt P07949); assay: Tyrosine kinase inhibition rate (ELISA), RET; assay type: biochemical; settings: read-out: Inhibtion rate (%) RET
# [13] = target: FGFR1 (Homo sapiens, UniProt P11362); assay: Tyrosine kinase inhibition rate (ELISA), FGFR1; assay type: biochemical
# [14] = system: EBC-1 cells; assay: Inhibition of c-Met-mediated EBC-1 cell proliferation (SRB staining); assay type: cell-based; settings: Homo sapiens, 72 hours treatment
# Procedure, shortened: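 MET-amplified EBC-1 NSCLC cells in log phase were seeded, cultured overnight, then exposed to compound in triplicate for 72 h. Growth was measured by TCA fixation, SRB staining and OD at 515 nm. IC50 reported as a range from the initial screening concentrations; experiment repeated twice.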
# [15] = target: ErbB4 (Homo sapiens, UniProt Q15303); assay: Tyrosine kinase inhibition rate (ELISA), ErbB4; assay type: biochemical; settings: read-out: Inhibtion rate (%) ErbB4
# [16] = target: Flt-1 (Homo sapiens, UniProt P17948); assay: Tyrosine kinase inhibition rate (ELISA), Flt-1; assay type: biochemical; settings: read-out: Inhibtion rate (%) Flt-1
# [17] = male, Sprague-Dawley, plasma, po, intragastric (gavage) 10 mg/kg
# [18] = male, Sprague-Dawley, plasma, intravenous 5 mg/kg
# [19] = male, Sprague-Dawley, plasma, iv, 5 mg/kg, intravenous 5 mg/kg, read-out: MRT
# [20] = male, Sprague-Dawley, plasma, po, 10 mg/kg, intragastric (gavage) 10 mg/kg, read-out: MRT
# [21] = 100 mg/kg oral once a day for 21 days
# T1 sequence (P08581 1078-1345 limits assumed): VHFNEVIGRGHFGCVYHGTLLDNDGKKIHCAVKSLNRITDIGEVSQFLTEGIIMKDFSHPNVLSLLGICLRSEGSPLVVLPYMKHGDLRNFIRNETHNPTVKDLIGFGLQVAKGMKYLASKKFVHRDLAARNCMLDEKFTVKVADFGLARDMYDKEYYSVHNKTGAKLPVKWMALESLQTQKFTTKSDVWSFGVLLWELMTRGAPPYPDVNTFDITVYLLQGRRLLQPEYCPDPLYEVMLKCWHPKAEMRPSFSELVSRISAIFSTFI
# IGF1R, sequence (P08069 31-1367, species assumed): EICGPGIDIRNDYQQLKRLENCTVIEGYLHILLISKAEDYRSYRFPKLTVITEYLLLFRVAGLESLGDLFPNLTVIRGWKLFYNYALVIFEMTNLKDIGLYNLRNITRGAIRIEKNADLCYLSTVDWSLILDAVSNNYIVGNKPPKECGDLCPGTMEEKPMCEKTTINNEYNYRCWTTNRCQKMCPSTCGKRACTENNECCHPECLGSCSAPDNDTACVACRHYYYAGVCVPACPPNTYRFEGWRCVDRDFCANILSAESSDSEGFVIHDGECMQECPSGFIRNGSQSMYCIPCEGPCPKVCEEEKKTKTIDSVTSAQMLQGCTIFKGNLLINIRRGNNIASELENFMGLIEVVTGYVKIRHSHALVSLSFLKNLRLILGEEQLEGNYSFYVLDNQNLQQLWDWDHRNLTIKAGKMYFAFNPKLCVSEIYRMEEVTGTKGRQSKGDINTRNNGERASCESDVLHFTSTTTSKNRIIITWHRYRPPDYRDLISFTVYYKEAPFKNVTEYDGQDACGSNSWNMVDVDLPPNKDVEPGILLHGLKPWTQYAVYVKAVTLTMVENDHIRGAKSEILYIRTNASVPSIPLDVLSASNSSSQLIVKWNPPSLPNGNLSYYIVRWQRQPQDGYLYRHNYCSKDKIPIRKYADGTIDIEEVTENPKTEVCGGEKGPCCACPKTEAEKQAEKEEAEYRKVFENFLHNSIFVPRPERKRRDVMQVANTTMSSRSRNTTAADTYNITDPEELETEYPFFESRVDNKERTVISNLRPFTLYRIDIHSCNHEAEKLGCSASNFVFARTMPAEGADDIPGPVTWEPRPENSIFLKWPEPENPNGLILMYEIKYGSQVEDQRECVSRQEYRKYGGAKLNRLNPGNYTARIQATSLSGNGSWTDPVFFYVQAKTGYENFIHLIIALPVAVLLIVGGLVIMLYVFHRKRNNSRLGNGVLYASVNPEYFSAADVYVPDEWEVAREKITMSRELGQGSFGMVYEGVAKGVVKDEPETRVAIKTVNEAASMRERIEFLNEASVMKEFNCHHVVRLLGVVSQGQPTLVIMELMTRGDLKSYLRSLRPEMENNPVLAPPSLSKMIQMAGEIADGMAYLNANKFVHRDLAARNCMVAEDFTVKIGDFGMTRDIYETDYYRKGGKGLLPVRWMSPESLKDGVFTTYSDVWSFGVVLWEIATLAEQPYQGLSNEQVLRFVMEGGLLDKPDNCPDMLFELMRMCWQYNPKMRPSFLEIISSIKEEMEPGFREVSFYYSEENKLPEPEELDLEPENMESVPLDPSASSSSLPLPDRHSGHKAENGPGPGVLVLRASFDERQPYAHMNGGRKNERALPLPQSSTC
# FGFR1, sequence (P11362 22-822, species assumed): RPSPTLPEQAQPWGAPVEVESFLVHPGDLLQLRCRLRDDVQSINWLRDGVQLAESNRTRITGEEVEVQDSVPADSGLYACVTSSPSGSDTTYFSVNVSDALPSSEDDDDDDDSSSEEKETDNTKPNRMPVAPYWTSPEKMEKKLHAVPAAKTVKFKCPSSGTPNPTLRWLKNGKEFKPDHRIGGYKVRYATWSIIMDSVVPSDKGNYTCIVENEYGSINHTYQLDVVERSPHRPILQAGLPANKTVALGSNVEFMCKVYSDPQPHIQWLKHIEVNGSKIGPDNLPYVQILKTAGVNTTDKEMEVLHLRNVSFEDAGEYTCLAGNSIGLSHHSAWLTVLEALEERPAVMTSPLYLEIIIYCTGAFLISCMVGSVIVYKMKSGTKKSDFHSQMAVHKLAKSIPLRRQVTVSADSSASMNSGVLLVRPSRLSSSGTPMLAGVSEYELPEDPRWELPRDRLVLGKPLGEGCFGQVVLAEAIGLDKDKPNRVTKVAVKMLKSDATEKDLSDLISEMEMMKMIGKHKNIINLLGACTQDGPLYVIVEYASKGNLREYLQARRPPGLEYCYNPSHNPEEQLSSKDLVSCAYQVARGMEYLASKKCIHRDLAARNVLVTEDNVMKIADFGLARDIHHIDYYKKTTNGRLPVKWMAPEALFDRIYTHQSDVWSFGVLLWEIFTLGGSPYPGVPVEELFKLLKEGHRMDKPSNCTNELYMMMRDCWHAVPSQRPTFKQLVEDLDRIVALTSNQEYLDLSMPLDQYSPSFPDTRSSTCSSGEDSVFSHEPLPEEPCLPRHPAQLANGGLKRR
# ErbB4, sequence (Q15303 26-1308, species assumed): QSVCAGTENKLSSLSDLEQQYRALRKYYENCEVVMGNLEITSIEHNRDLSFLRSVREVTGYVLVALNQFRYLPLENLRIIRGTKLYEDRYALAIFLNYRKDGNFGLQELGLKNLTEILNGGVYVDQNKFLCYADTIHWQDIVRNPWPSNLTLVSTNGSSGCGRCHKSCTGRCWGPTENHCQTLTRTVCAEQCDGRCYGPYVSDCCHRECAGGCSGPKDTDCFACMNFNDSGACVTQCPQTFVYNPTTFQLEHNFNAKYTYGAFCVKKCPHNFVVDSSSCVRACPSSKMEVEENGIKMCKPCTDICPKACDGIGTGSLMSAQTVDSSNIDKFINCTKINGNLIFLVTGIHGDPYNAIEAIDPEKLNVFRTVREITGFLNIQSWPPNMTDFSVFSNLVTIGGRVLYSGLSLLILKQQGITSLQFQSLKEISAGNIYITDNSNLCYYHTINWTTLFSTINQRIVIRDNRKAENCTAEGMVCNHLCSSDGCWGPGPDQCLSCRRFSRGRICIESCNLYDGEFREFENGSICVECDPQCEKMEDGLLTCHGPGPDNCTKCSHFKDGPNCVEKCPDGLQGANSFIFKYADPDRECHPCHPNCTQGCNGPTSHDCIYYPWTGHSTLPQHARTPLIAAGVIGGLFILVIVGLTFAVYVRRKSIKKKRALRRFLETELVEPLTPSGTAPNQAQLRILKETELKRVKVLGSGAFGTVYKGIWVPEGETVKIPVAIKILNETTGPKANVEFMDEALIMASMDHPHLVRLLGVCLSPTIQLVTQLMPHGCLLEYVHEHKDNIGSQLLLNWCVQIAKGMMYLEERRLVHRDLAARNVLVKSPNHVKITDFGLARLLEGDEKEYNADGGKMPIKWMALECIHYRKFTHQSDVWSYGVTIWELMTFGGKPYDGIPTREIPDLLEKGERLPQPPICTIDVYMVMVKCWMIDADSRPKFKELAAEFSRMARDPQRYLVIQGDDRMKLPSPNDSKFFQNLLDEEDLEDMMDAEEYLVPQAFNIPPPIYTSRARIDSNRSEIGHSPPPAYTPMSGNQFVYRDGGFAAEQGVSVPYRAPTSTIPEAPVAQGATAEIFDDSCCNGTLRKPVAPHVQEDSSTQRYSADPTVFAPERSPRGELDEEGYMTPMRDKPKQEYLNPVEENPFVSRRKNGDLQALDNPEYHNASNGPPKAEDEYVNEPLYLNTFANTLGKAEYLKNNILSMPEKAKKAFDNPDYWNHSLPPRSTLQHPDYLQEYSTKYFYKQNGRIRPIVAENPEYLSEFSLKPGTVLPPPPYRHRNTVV
# RET, sequence (P07949 29-1114, species assumed): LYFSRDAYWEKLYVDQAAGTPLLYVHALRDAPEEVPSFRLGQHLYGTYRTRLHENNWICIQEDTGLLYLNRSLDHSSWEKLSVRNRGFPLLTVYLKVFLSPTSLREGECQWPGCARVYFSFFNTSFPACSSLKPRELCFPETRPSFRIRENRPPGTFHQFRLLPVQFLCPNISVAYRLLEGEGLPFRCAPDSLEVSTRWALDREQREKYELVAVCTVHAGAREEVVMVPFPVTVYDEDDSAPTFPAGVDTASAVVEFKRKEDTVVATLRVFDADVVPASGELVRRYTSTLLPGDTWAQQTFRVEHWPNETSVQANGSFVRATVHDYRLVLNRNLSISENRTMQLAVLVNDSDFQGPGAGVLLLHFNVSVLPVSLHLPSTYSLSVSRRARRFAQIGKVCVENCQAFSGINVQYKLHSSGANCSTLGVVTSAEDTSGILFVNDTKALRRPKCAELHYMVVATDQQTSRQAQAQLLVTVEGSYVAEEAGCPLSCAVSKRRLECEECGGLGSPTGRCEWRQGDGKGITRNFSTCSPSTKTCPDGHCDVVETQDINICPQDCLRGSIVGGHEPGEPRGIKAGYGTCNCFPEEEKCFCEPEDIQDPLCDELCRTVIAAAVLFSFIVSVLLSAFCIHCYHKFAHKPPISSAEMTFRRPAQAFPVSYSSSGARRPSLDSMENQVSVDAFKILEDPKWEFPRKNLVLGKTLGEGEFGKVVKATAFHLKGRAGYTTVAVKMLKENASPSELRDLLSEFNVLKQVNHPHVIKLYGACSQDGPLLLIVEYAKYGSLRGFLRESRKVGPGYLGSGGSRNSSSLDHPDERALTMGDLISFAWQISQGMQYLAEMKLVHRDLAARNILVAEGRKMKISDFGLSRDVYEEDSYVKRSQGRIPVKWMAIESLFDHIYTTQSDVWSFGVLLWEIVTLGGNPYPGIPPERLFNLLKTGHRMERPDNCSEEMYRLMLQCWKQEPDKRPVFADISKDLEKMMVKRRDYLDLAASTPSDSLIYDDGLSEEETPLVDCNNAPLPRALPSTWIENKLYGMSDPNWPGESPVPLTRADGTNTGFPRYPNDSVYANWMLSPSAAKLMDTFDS
compound,measurement,setting,value
"C[C@@H](Oc1cc(-c2cnn(C3CCNCC3)c2)cnc1N)c1c(Cl)ccc(F)c1Cl [PF2341066, Crizotinib, reference compound]","TV (mm^3, mean ± SD) d0",[1]; 50 mg/kg qd/21 po,123 ± 25 mm^3
same,Weight (g) d0,[1]; 50 mg/kg qd/21 po,17.2 g
same,RTV (mean ± SD),[1]; 50 mg/kg qd/21 po,0.00 ± 0.00
same,T/C (%),[1]; 50 mg/kg qd/21 po,0.00%
same,"TV (mm^3, mean ± SD) d21",[1]; 50 mg/kg qd/21 po,0 ± 0 mm^3
same,Weight (g) d21,[1]; 50 mg/kg qd/21 po,19.6 g
"O=C(Nc1ccc(F)cc1)C1(C(=O)Nc2ccc(Oc3ccnc4cc(OCCN5CCOCC5)ncc34)c(F)c2)CC1 [Compound 7S, N-(3-fluoro-4-((7-(2-morpholinoethoxy)-1,6-naphthyridin-4-yl)oxy)phenyl)-N-(4-fluorophenyl)cyclopropyl-1,1-dicarboxamide]",inhibition at 1 µM,[2],21.7%
same,inhibition at 1 µM,[3],18.1%
same,inhibition at 1 µM,[4],23.3%
same,inhibition at 1 µM,[5],8.6%
same,IC50,[6],1 to 10 nM
same,inhibition at 1 µM,"[6]; 1 μM, read-out: Inhibtion rate (%) c-Met",100%
same,bioavailability,"[7]; male, Sprague-Dawley, plasma",51.8%
same,AUC(0-inf),[7]; [17],16700 ng·h/mL
same,AUC(0-t),[7]; [17],16500 ng·h/mL
same,Cmax,[7]; [17],5450 ng/mL
same,Tmax,[7]; [17],1.75 h
same,half-life,[7]; [17],1.66 h
same,AUC(0-inf),[7]; [18],16000 ng·h/mL
same,AUC(0-t),[7]; [18],15900 ng·h/mL
same,clearance,[7]; [18],5.23 mL/min/kg
same,half-life,[7]; [18],1 h
same,Vd,[7]; [18],0.346 L/kg
same,MRT,[7]; [19],1.11 h
same,MRT,[7]; [20],2.6 h
same,MRT,"[7]; intragastric (gavage) 10 mg/kg, 10 mg/kg",2.653 h
same,inhibition at 1 µM,[8],48.7%
same,inhibition at 1 µM,[9],55.9%
same,inhibition at 1 µM,[10],87.9%
same,inhibition at 1 µM,[11],55.6%
same,inhibition at 1 µM,[12],78.2%
same,inhibition at 1 µM,[13]; read-out: Inhibtion rate (%) FGFR1,36.3%
same,"TV (mm^3, mean ± SD) d0",[1]; 10 mg/kg qd/21 po,128 ± 34 mm^3
same,Weight (g) d0,[1]; 10 mg/kg qd/21 po,18.2 g
same,RTV (mean ± SD),[1]; 10 mg/kg qd/21 po,6.09 ± 2.17
same,T/C (%),[1]; 10 mg/kg qd/21 po,46.24%
same,"TV (mm^3, mean ± SD) d21",[1]; 10 mg/kg qd/21 po,764 ± 258 mm^3
same,Weight (g) d21,[1]; 10 mg/kg qd/21 po,22.0 g
same,tumor volume growth inhibition rate GI,[1]; [21],96.5%
same,tumor weight inhibition rate,[1]; [21],86.9%
same,"TV (mm^3, mean ± SD) d0",[1]; 100 mg/kg qd/21 po,128 ± 39 mm^3
same,Weight (g) d0,[1]; 100 mg/kg qd/21 po,17.4 g
same,RTV (mean ± SD),[1]; 100 mg/kg qd/21 po,1.26 ± 0.85
same,T/C (%),[1]; 100 mg/kg qd/21 po,9.58% and 9.5%
same,"TV (mm^3, mean ± SD) d21",[1]; 100 mg/kg qd/21 po,181 ± 156 mm^3
same,Weight (g) d21,[1]; 100 mg/kg qd/21 po,20.7 g
same,safety in vivo,[1]; within effective dose,safe and non-toxic within effective dose
same,IC50,[14],10 to 100 nM
same,inhibition at 1 µM,[15],6.6%
same,inhibition at 1 µM,[16],70.3%
"CN(C)C/C=C/C(=O)Nc1cc2c(Nc3ccc(F)c(Cl)c3)ncnc2cc1O[C@H]1CCOC1 [BIBW2992, reference compound]",inhibition at 1 µM,[15],71.1%
"CCN(CC)CCNC(=O)c1c(C)[nH]c(/C=C2\C(=O)Nc3ccc(F)cc32)c1C [Su11248, reference compound]",inhibition at 1 µM,[8],55.6%
same,inhibition at 1 µM,[11],54.8%
same,inhibition at 1 µM,[12],80.6%
same,inhibition at 1 µM,[16],77.4%
O=C(Nc1ccc(F)cc1)C1(C(=O)Nc2ccc(Oc3ccnc4cc(OCCCN5CCOCC5)ncc34)c(F)c2)CC1 [Compound 8S],IC50,[6],1 to 10 nM
same,bioavailability,"[7]; male, Sprague-Dawley, plasma",38.6%
same,AUC(0-inf),[7]; [17],6870 ng·h/mL
same,AUC(0-t),[7]; [17],6780 ng·h/mL
same,Cmax,[7]; [17],2060 ng/mL
same,Tmax,[7]; [17],1.25 h
same,half-life,[7]; [17],1.49 h
same,AUC(0-inf),[7]; [18],8810 ng·h/mL
same,AUC(0-t),[7]; [18],8770 ng·h/mL
same,clearance,[7]; [18],9.58 mL/min/kg
same,half-life,[7]; [18],1.15 h
same,Vd,[7]; [18],0.667 L/kg
same,MRT,[7]; [19],1.17 h
same,MRT,[7]; [20],2.71 h
same,IC50,[14],10 to 100 nM
"Nc1ncnc2c1c(-c1cccc(OCc3ccccc3)c1)cn2[C@H]1C[C@@H](CN2CCC2)C1 [AEW541, reference compound]",inhibition at 1 µM,[3],70.9%
AZD4547 [reference compound],Inhibtion rate (%) FGFR1,[13]; 1 μM,100%
